US20070299084A1, “Indole Derivatives Useful for Treating Resistance to Antitumor Agents” (NIKEM RESE S.R.L., priority 2004, published 2007)

Tests used:
HT29 line = test: Apoptosis experiment (Tunel); type: cell-based, human
Protocol: 1.5×10^6 cells/sample are seeded. After 24 hours the cells are treated with the compounds for 48 or 72 hours. At the end of the treatment, the cells are detached with Trypsin/EDTA, washed in PBS (phosphate buffered solution) and incubated for 45 minutes at room temperature in 1 ml of 4% paraformaldehyde.
The cells are then washed with PBS and resuspended in 100 μl of permeabilizing solution (0.1% triton in 0.1% sodium citrate) for 2 minutes in ice. After a further wash, the cells are resuspended in 50 μl of Tunel reaction mix (Boehringer Mannheim) and left at 37° C. for 1 hour in the dark. After washing in PBS, the cells are resuspended in PBS and analysed by cytofluorimeter or examined by fluorescence microscope.

[1] = system: SH-SY5Y cells (human neuroblastoma); test: Antiproliferative activity, 48 h treatment, ATPlite luminescence assay, SH-SY5Y; type: cell-based; conditions: Homo sapiens, SH-SY5Y, 48 h, read-out: Antiproliferative activity (IC50 ± S.D., μM) SHSY-5Y
Protocol: (§1) SH-SY5Y and SK-N-BE(2): maintained in HAM-F12 medium+10% FCS.
(§2) 24 hours after seeding, an aliquot (10 μl) of the drug at the various concentrations is added (for each concentration there are 3 replicates). After 48 hours of treatment the antiproliferative effect is evaluated with a luminescence assay (Perkin Elmer Life Sciences ATPlite):
(§3) 50 μl of a lysis solution are added to each well followed by an equal volume of a solution containing luciferase and D-luciferin. The ATP present in all the metabolically active cells brings about the transformation reaction of D-luciferin, catalysed by luciferase, to produce a luminescent signal as described in the following scheme: ATP+D-luciferin+O2→Oxyluciferin+AMP+PPi+CO2+Light
(§4) The luminescence produced (expressed in counts per second, CPS) is measured by means of a microplate scintillation analyzer (Perkin Elmer Life Sciences Top Count).
(§5) Percentage inhibition of luminescence in the treated cells compared to the control is calculated; concentration-response curves are then analysed using Grafit v.5.0.

[2] = system: HT29/Mit human colon carcinoma xenografts; test: HT29/Mit human colon carcinoma xenografts, antitumor activity; type: in vivo, athymic Swiss nude mice; conditions: HT29/Mit xenograft, p.o.; topotecan 15 mg/Kg every 4 days for 3 administrations; compound of example 2 30 mg/kg; alone or combined
Protocol: Female athymic Swiss nude mice (8-10 weeks old) (Charles River, Calco, Italy) were used for the experiments. The animals were maintained at constant temperature and humidity, and were allowed to eat and drink freely. The experimental protocol was approved by the Ethics Committee for Animal Experimentation of the Istituto Nazionale Tumori of Milan.
The antitumour effectiveness of the compounds of the invention under discussion was tested on athymic mouse models implanted with HT29 and/or HT29/Mit tumour cells: this latter variety is highly resistant to topotecan treatment. The tumour cells were implanted in vivo via subcutaneous injection of 10^7 cells taken from in vitro cultures. Randomized groups of five mice with bilateral subcutaneous tumours were used for the experiment.
Topotecan or other known antitumour agents (dissolved in distilled water or an appropriate solvent) and the compounds of the invention (dissolved in Cremophor EL:ethanol:saline solution in the proportions 5:5:90, or in an appropriate solvent) were administered orally from the third day, alone or in combination, in agreement with a treatment scheme selected in an appropriate manner depending on the type of compound to be studied.
The weight (or volume) of the tumour in treated mice compared to controls is represented graphically on the y-axis against time (x-axis).

[3] = system: A2780 cells (human ovarian carcinoma); test: Antiproliferative activity, 48 h treatment, ATPlite luminescence assay, A2780; type: cell-based; conditions: Homo sapiens, A2780, 48 h, read-out: Antiproliferative activity (IC50 ± S.D., μM) A2780
Protocol: as §2, §3, §4, §5

[4] = system: HCT116 cells (human colon carcinoma); test: Antiproliferative activity, 72 h treatment, SRB assay, HCT116; type: cell-based
Protocol: HCT116 maintained in RPMI 1640 medium+10% FCS.
The cells (HT29 and HT29/Mit:. 40,000 cells/ml, LoVo, LoVo/Dx and HCT116: 50,000 cells/ml) are seeded in 100 μl of the respective culture media in 96-well plates. 24 hours after seeding, an aliquot (10 μl) of drug at the various concentrations is added. In the samples in which the effect of the combination of two compounds is to be tested the inhibitor is added immediately before the cytotoxic. For each dose or combination of doses/drugs the effect of the treatment is determined in 4-8 replicates.
After 72 hours of treatment the antiproliferative effect is evaluated using the sulforhodamine B (SRB) assay: the cells are fixed by adding 25 μl of 50% TCA to each well and left for 1 hour at 4° C. After washing them with water and allowing them to dry, 100 μl of 0.4% SRB in 1% acetic acid are added and left for 30 minutes at room temperature. After 4 washes in 1% acetic acid, they are left to dry, then the dye fixed by the proteins is dissolved under basic conditions with 100 μl 10 mM cold Tris and the solution is read using a spectrophotometer at 550 nm.
Percentage cell growth is calculated as the optical density of treated samples compared to the optical density of controls (untreated cells).
The Combination Index (C.I.) was determined according to Kern's method, 1988 (who continued from Drewinko B, 1976) (Kern D. H., Cancer Res. 48, 117-121, 1988; Drewinko B., Cancer Biochem. Biophys. 1, 187-195, 1976) by means of the following formula: […], where SFa and SFb are the fractions of cells surviving to treatment with compound a and b, respectively; SFab is the fraction surviving to the combination of compounds a and b.

[5] = system: LoVo cells (human colon carcinoma); test: Antiproliferative activity, 72 h treatment, SRB assay, LoVo; type: cell-based
From the text: LoVo and LoVo/Dx (line obtained by prolonged exposure to doxorubicin and characterised by overerexpression of P-glycoprotein, which confers resistance to doxorubicin): maintained in HAM-F12 medium+10% FCS.

[6] = system: HepG2 cells (human hepatic carcinoma); test: Antiproliferative activity, 48 h treatment, ATPlite luminescence assay, HepG2; type: cell-based; conditions: Homo sapiens, HepG2, read-out: Antiproliferative activity (IC50 ± S.D., μM) HepG2
Protocol: HepG2: maintained in EMEM medium+10% FCS.
as §2, §3, §4, §5

[7] = system: SK-N-BE(2) cells (human neuroblastoma); test: Antiproliferative activity, 48 h treatment, ATPlite luminescence assay, SK-N-BE(2); type: cell-based; conditions: Homo sapiens, SKNBE2, 48 h, read-out: Antiproliferative activity (IC50 ± S.D., μM) SK-N-BE(2)
Protocol: as §1, §2, §3, §4, §5

CCOc1cc(C(=O)NC2CC(C)(C)NC(C)(C)C2)ccc1-c1cc2cc(Cl)c(Cl)cc2[nH]1 [Example 2]
Induction of apoptosis (HT29 line): high level of apoptosis | IC50 [1]: 6.8 ± 0.5 µM | Inhibition of tumour growth [2]: poorly effective | IC50 [3]: 1.9 ± 0.1 µM | Interaction with cisplatin ([4]; HCT116 line, subtoxic and subactive concentrations): significant synergistic effect | IC50 ([4]; Homo sapiens, HCT-116, 72 h, read-out: Antiproliferative activity (IC50 ± S.D., μM) HCT116): 2.4 ± 0.9 µM | IC50 ([5]; Homo sapiens, LoVo, 72 h, read-out: Antiproliferative activity (IC50 ± S.D., μM) LoVo): 2.4 ± 1.4 µM | Interaction with SN38 ([5]; LoVo line): synergism | Interaction with taxol ([5]; LoVo line): synergism | IC50 [6]: 2 ± 0.1 µM | IC50 [7]: 3.7 ± 0.2 µM
